In PubChem BioAssay AID1919007 (Molecular Pharmacology Branch, DTP, NCI, 2023):

Test system: A498 complex spheroids with HUVEC/MSC, growth
Assay: Anticancer human tumor A498 cell line growth inhibition [AhR];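 note: seven day exposure starting three days after spheroid seeding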;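 for viability, T/C: luminescence signal used as a surrogate for viable cells; luminescence viability scaled so 100% equals DMSO vehicle wells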
Conditions: for IC50: curve of first compound; for viability, T/C: stronger effect = lower value
Summary of the method: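 Complex tumor spheroids co-cultured with HUVEC and human MSC stroma; AhR antagonists tested in combination with standard-of-care and investigational agents. Top concentration at or near clinical Cmax (else 10 microM), half-log dilutions; growth expressed as percent test/control.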

[1] = second compound 0.1 µM, first compound 0.0316 µM
[2] = second compound 0.1 µM, first compound 0.1 µM
[3] = second compound 0.1 µM, first compound 0.316 µM
[4] = second compound 0.1 µM, first compound 1 µM
[5] = second compound 0.1 µM, first compound 3.16 µM
[6] = second compound 0.1 µM, first compound 10 µM
[7] = second compound 0.316 µM, first compound 0.0316 µM
[8] = second compound 0.316 µM, first compound 0.1 µM
[9] = second compound 0.316 µM, first compound 0.316 µM
[10] = second compound 0.316 µM, first compound 1 µM
[11] = second compound 0.316 µM, first compound 3.16 µM
[12] = second compound 0.316 µM, first compound 10 µM
[13] = second compound 1 µM, first compound 0.0316 µM
[14] = second compound 1 µM, first compound 0.1 µM
[15] = second compound 1 µM, first compound 0.316 µM
[16] = second compound 1 µM, first compound 1 µM
[17] = second compound 1 µM, first compound 3.16 µM
[18] = second compound 1 µM, first compound 10 µM
[19] = second compound 3.16 µM, first compound 0.0316 µM
[20] = second compound 3.16 µM, first compound 0.1 µM
[21] = second compound 3.16 µM, first compound 0.316 µM
[22] = second compound 3.16 µM, first compound 1 µM
[23] = second compound 3.16 µM, first compound 3.16 µM
[24] = second compound 3.16 µM, first compound 10 µM
[25] = second compound 10 µM, first compound 0.0316 µM
[26] = second compound 10 µM, first compound 0.1 µM
[27] = second compound 10 µM, first compound 0.316 µM
[28] = second compound 10 µM, first compound 1 µM
[29] = second compound 10 µM, first compound 3.16 µM
[30] = second compound 10 µM, first compound 10 µM

`COc1ccc([C@@H](O)c2cc(-c3ncnc4cc(N5CCOCC5)ccc34)c(F)cc2Cl)nn1` + CC(CO)NC(=O)c1cc(-c2ccc(Cl)cc2)nn(-c2cnn(C)c2)c1=O was tested, and the IC50 (second compound 0.1 µM) was 346 nM, the IC50 (second compound 0.316 µM) was 307 nM and the IC50 (second compound 1 µM) was 307 nM. The IC50 (second compound 3.16 µM) was 230 nM, the IC50 (second compound 10 µM) was 74.4 nM and the viability, T/C [1] was 83.6%. It also gave a viability, T/C [2] of 79.5%, a viability, T/C [3] of 49.9% and a viability, T/C [4] of 26.2%. For the same compound, the viability, T/C [5] was 15.1%, the viability, T/C [6] was 9.67% and the viability, T/C [7] was 78%. The viability, T/C [8] was 73%, the viability, T/C [9] was 48.4% and the viability, T/C [10] was 23.9%. For the same compound, the viability, T/C [11] was 13.6%, the viability, T/C [12] was 8.99% and the viability, T/C [13] was 77.7%. It also gave a viability, T/C [14] of 73.2%, a viability, T/C [15] of 48.7% and a viability, T/C [16] of 22.8%. For the same compound, the viability, T/C [17] was 14.3%, the viability, T/C [18] was 9.42% and the viability, T/C [19] was 70.9%. The viability, T/C [20] was 67.9%, the viability, T/C [21] was 42.7% and the viability, T/C [22] was 20.8%. For the same compound, the viability, T/C [23] was 12.9%, the viability, T/C [24] was 10% and the viability, T/C [25] was 55.3%. The viability, T/C [26] was 49.3%, the viability, T/C [27] was 33.1% and the viability, T/C [28] was 21.1%. For the same compound, the viability, T/C [29] was 12.3% and the viability, T/C [30] was 7.61%.
`Nc1ccccc1NC(=O)c1ccc(CNC(=O)OCc2cccnc2)cc1` + Cc1ccccc1N=Nc1ccc(NC(=O)c2ccnn2C)c(C)c1 gave an IC50 (second compound 0.1 µM) of 1500 nM, an IC50 (second compound 0.316 µM) of 1670 nM and an IC50 (second compound 1 µM) of 1430 nM. For the same compound, the IC50 (second compound 3.16 µM) was 1200 nM, the IC50 (second compound 10 µM) was 1160 nM and the viability, T/C [1] was 101%. The viability, T/C [2] was 91.4%, the viability, T/C [3] was 82.5% and the viability, T/C [4] was 64.6%. For the same compound, the viability, T/C [5] was 26.8%, the viability, T/C [6] was 1.44% and the viability, T/C [7] was 123%. For the same compound, the viability, T/C [8] was 92.6%, the viability, T/C [9] was 86.5% and the viability, T/C [10] was 72%. It also gave a viability, T/C [11] of 28.5%, a viability, T/C [12] of 1.77% and a viability, T/C [13] of 103%. The viability, T/C [14] was 96.2%, the viability, T/C [15] was 82% and the viability, T/C [16] was 61.5%. For the same compound, the viability, T/C [17] was 27.3%, the viability, T/C [18] was 1.56% and the viability, T/C [19] was 89.3%. For the same compound, the viability, T/C [20] was 91.6%, the viability, T/C [21] was 74.4% and the viability, T/C [22] was 54%. For the same compound, the viability, T/C [23] was 26.9%, the viability, T/C [24] was 1.8% and the viability, T/C [25] was 84%. It also gave a viability, T/C [26] of 80.7%, a viability, T/C [27] of 67.8% and a viability, T/C [28] of 53.6%. The viability, T/C [29] was 29.6% and the viability, T/C [30] was 1.63%.
For `NS(=O)(=O)OCC1CC(n2ccc3c(NC4CCc5ccccc54)ncnc32)CC1O` (stereo not given) + CC(CO)NC(=O)c1cc(-c2ccc(Cl)cc2)nn(-c2cnn(C)c2)c1=O, the IC50 (second compound 0.1 µM) was 268 nM, the IC50 (second compound 0.316 µM) was 263 nM and the IC50 (second compound 1 µM) was 310 nM. It also gave an IC50 (second compound 3.16 µM) of 245 nM, an IC50 (second compound 10 µM) of 196 nM and a viability, T/C [1] of 94.8%. It also gave a viability, T/C [2] of 86%, a viability, T/C [3] of 42.4% and a viability, T/C [4] of 30%. It also gave a viability, T/C [5] of 22.4%, a viability, T/C [6] of 17.7% and a viability, T/C [7] of 90.9%. The viability, T/C [8] was 81.8%, the viability, T/C [9] was 42.9% and the viability, T/C [10] was 27.2%. It also gave a viability, T/C [11] of 23.3%, a viability, T/C [12] of 17.6% and a viability, T/C [13] of 92%. It also gave a viability, T/C [14] of 82.4%, a viability, T/C [15] of 47.5% and a viability, T/C [16] of 30.8%. For the same compound, the viability, T/C [17] was 23.4%, the viability, T/C [18] was 19.8% and the viability, T/C [19] was 92.5%. It also gave a viability, T/C [20] of 73.6%, a viability, T/C [21] of 41.5% and a viability, T/C [22] of 29.3%. For the same compound, the viability, T/C [23] was 20.6%, the viability, T/C [24] was 18.3% and the viability, T/C [25] was 79%. For the same compound, the viability, T/C [26] was 64.1%, the viability, T/C [27] was 39.5% and the viability, T/C [28] was 26%. It also gave a viability, T/C [29] of 20.9% and a viability, T/C [30] of 17.6%.
In the case of `CCN(c1cc(-c2ccc(CN3CCOCC3)cc2)cc(C(=O)NCc2c(C)cc(C)[nH]c2=O)c1C)C1CCOCC1` + Cc1cncc(-c2nc(NCCc3c[nH]c4ccccc34)c3ncn(C(C)C)c3n2)c1, the IC50 (second compound 0.1 µM) is reported as > 3000 nM, the IC50 (second compound 0.316 µM) is reported as > 3000 nM and the IC50 (second compound 1 µM) is reported as > 3000 nM. For the same compound, the IC50 (second compound 3.16 µM) was < 9.49 nM, the IC50 (second compound 10 µM) was < 9.49 nM and the viability, T/C (second compound 0.1 µM, first compound 0.00949 µM) was 94%. For the same compound, the viability, T/C (second compound 0.1 µM, first compound 0.03 µM) was 97%, the viability, T/C (second compound 0.1 µM, first compound 0.0949 µM) was 90.2% and the viability, T/C (second compound 0.1 µM, first compound 0.3 µM) was 87.7%. It also gave a viability, T/C (second compound 0.1 µM, first compound 0.949 µM) of 97.7%, a viability, T/C (second compound 0.1 µM, first compound 3 µM) of 88.4% and a viability, T/C (second compound 0.316 µM, first compound 0.00949 µM) of 103%. The viability, T/C (second compound 0.316 µM, first compound 0.03 µM) was 94.2%, the viability, T/C (second compound 0.316 µM, first compound 0.0949 µM) was 101% and the viability, T/C (second compound 0.316 µM, first compound 0.3 µM) was 90%. The viability, T/C (second compound 0.316 µM, first compound 0.949 µM) was 97.4%, the viability, T/C (second compound 0.316 µM, first compound 3 µM) was 91.5% and the viability, T/C (second compound 1 µM, first compound 0.00949 µM) was 88.8%. The viability, T/C (second compound 1 µM, first compound 0.03 µM) was 91.4%, the viability, T/C (second compound 1 µM, first compound 0.0949 µM) was 86.1% and the viability, T/C (second compound 1 µM, first compound 0.3 µM) was 81.3%. The viability, T/C (second compound 1 µM, first compound 0.949 µM) was 82%, the viability, T/C (second compound 1 µM, first compound 3 µM) was 88.1% and the viability, T/C (second compound 3.16 µM, first compound 0.00949 µM) was 44.6%. The viability, T/C (second compound 3.16 µM, first compound 0.03 µM) was 45%, the viability, T/C (second compound 3.16 µM, first compound 0.0949 µM) was 47.2% and the viability, T/C (second compound 3.16 µM, first compound 0.3 µM) was 44.5%. For the same compound, the viability, T/C (second compound 3.16 µM, first compound 0.949 µM) was 45.7%, the viability, T/C (second compound 3.16 µM, first compound 3 µM) was 39.5% and the viability, T/C (second compound 10 µM, first compound 0.00949 µM) was 4.35%. For the same compound, the viability, T/C (second compound 10 µM, first compound 0.03 µM) was 4.58%, the viability, T/C (second compound 10 µM, first compound 0.0949 µM) was 6.5% and the viability, T/C (second compound 10 µM, first compound 0.3 µM) was 4.8%. It also gave a viability, T/C (second compound 10 µM, first compound 0.949 µM) of 2.06% and a viability, T/C (second compound 10 µM, first compound 3 µM) of 1.26%.
In the case of `CC[C@@]1(O)C(=O)OCc2c1cc1n(c2=O)Cc2cc3c(CN(C)C)c(O)ccc3nc2-1` + Cc1ccccc1N=Nc1ccc(NC(=O)c2ccnn2C)c(C)c1, the IC50 (second compound 0.1 µM) is reported as > 100 nM, the IC50 (second compound 0.316 µM) is reported as > 100 nM and the IC50 (second compound 1 µM) is reported as > 100 nM. The IC50 (second compound 3.16 µM) was > 100 nM, the IC50 (second compound 10 µM) was > 100 nM and the viability, T/C (second compound 0.1 µM, first compound 0.000316 µM) was 88.9%. The viability, T/C (second compound 0.1 µM, first compound 0.001 µM) was 93.4%, the viability, T/C (second compound 0.1 µM, first compound 0.00316 µM) was 87.9% and the viability, T/C (second compound 0.1 µM, first compound 0.01 µM) was 80.7%. It also gave a viability, T/C [1] of 75.7%, a viability, T/C [2] of 74.7% and a viability, T/C (second compound 0.316 µM, first compound 0.000316 µM) of 90.7%. The viability, T/C (second compound 0.316 µM, first compound 0.001 µM) was 99.7%, the viability, T/C (second compound 0.316 µM, first compound 0.00316 µM) was 92.8% and the viability, T/C (second compound 0.316 µM, first compound 0.01 µM) was 81%. The viability, T/C [7] was 74.3%, the viability, T/C [8] was 74.2% and the viability, T/C (second compound 1 µM, first compound 0.000316 µM) was 87.5%. For the same compound, the viability, T/C (second compound 1 µM, first compound 0.001 µM) was 92.7%, the viability, T/C (second compound 1 µM, first compound 0.00316 µM) was 86.9% and the viability, T/C (second compound 1 µM, first compound 0.01 µM) was 68%. For the same compound, the viability, T/C [13] was 71.5%, the viability, T/C [14] was 66.5% and the viability, T/C (second compound 3.16 µM, first compound 0.000316 µM) was 87.3%. It also gave a viability, T/C (second compound 3.16 µM, first compound 0.001 µM) of 90.4%, a viability, T/C (second compound 3.16 µM, first compound 0.00316 µM) of 87.7% and a viability, T/C (second compound 3.16 µM, first compound 0.01 µM) of 74.7%. The viability, T/C [19] was 69.8%, the viability, T/C [20] was 64.2% and the viability, T/C (second compound 10 µM, first compound 0.000316 µM) was 84%. For the same compound, the viability, T/C (second compound 10 µM, first compound 0.001 µM) was 84.7%, the viability, T/C (second compound 10 µM, first compound 0.00316 µM) was 89.1% and the viability, T/C (second compound 10 µM, first compound 0.01 µM) was 76.5%. It also gave a viability, T/C [25] of 78% and a viability, T/C [26] of 63.4%.
